Results reported in PubChem BioAssay (NCI).
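96-well plates; 48 h exposure; 5 concentrations. Endpoints by linear interpolation between flanking doses. Not reached: highest tested concentration assigned. At the TGI there is no net growth.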

Experiments:
Assay in all cases: NCI-60 cell line screen, 48 h
[1] = system: 786-0 renal
[2] = system: A498 renal
[3] = system: A549 NSCLC
[4] = system: ACHN renal
[5] = system: BT-549 breast
[6] = system: CAKI-1 renal
[7] = system: CCRF-CEM leukemia
[8] = system: COLO 205 colon
[9] = system: DU-145 prostate
[10] = system: EKVX NSCLC
[11] = system: HCC-2998 colon
[12] = system: HCT-116 colon
[13] = system: HCT-15 colon
[14] = system: HL-60(TB) leukemia
[15] = system: HOP-62 NSCLC
[16] = system: HOP-92 NSCLC
[17] = system: HS 578T breast
[18] = system: IGROV1 ovarian
[19] = system: K-562 leukemia
[20] = system: KM12 colon
[21] = system: LOX IMVI melanoma
[22] = system: M14 melanoma
[23] = system: MALME-3M melanoma
[24] = system: MCF7 breast
[25] = system: MDA-MB-231 breast
[26] = system: MDA-MB-435
[27] = system: MDA-N
[28] = system: MOLT-4 leukemia
[29] = system: NCI-H226 lung
[30] = system: NCI-H23 lung
[31] = system: NCI-H460 lung
[32] = system: NCI-H522 lung
[33] = system: NCI/ADR-RES ovarian
[34] = system: OVCAR-3 ovarian
[35] = system: OVCAR-4 ovarian
[36] = system: OVCAR-5 ovarian
[37] = system: OVCAR-8 ovarian
[38] = system: PC-3 prostate
[39] = system: RPMI-8226 leukemia
[40] = system: RXF 393 renal
[41] = system: SF-268 CNS
[42] = system: SF-295 CNS
[43] = system: SF-539 CNS
[44] = system: SK-MEL-2 melanoma
[45] = system: SK-MEL-28 melanoma
[46] = system: SK-MEL-5 melanoma
[47] = system: SK-OV-3 ovarian
[48] = system: SN12C renal
[49] = system: SNB-19 CNS
[50] = system: SNB-75 CNS
[51] = system: SR leukemia
[52] = system: SW-620 colon
[53] = system: T-47D breast
[54] = system: TK-10 renal
[55] = system: U251 CNS
[56] = system: UACC-257 melanoma
[57] = system: UACC-62 melanoma
[58] = system: HT29 colon
[59] = system: UO-31 renal

Q: With `CN(C)CCCSc1nc2c(c(=N)n1-c1ccccc1)c(=S)n(-c1ccccc1)c(=S)n2-c1ccccc1` as the compound, how does the TGI [1] read?
A: Its TGI is 2.66 µM.

Q: And the TGI [2]?
A: Its TGI is 4.89 µM.

Q: What about the TGI [3] of the same compound?
A: Its TGI is 4.58 µM.

Q: And the TGI [4]?
A: The TGI was 3.22 µM.

Q: What about the TGI [5] of the same compound?
A: Its TGI is 3.38 µM.

Q: And the TGI [6]?
A: Its TGI is 3.16 µM.

Q: What about the TGI [7] of the same compound?
A: Its TGI is 2.41 µM.

Q: And the TGI [8]?
A: Its TGI is 3.94 µM.

Q: What about the TGI [9] of the same compound?
A: The TGI was 3.04 µM.

Q: And the TGI [10]?
A: Its TGI is 3.58 µM.

Q: What about the TGI [11] of the same compound?
A: Its TGI is 2.82 µM.

Q: And the TGI [12]?
A: Its TGI is 3.46 µM.

Q: What about the TGI [13] of the same compound?
A: Its TGI is 3.32 µM.

Q: What about the TGI [14] of the same compound?
A: The TGI was 1.75 µM.

Q: What about the TGI [15] of the same compound?
A: The TGI was 3.4 µM.

Q: And the TGI [16]?
A: The TGI was 3.24 µM.

Q: What about the TGI [17] of the same compound?
A: The TGI was > 100 µM.

Q: What about the TGI [18] of the same compound?
A: The TGI was 3.14 µM.

Q: And the TGI [19]?
A: The TGI was 3.81 µM.

Q: And the TGI [20]?
A: The TGI was 3.5 µM.

Q: What about the TGI [21] of the same compound?
A: The TGI was 2.87 µM.

Q: What about the TGI [22] of the same compound?
A: The TGI was 3.76 µM.

Q: What about the TGI [23] of the same compound?
A: Its TGI is 3.6 µM.

Q: And the TGI [24]?
A: The TGI was > 100 µM.

Q: And the TGI [25]?
A: Its TGI is 3.03 µM.

Q: And the TGI [26]?
A: The TGI was 3.09 µM.

Q: And the TGI [27]?
A: Its TGI is 3.18 µM.

Q: And the TGI [28]?
A: Its TGI is 3.28 µM.

Q: What about the TGI [29] of the same compound?
A: The TGI was 28.4 µM.

Q: And the TGI [30]?
A: The TGI was 4.45 µM.

Q: What about the TGI [31] of the same compound?
A: Its TGI is 3.24 µM.

Q: What about the TGI [32] of the same compound?
A: Its TGI is 3.42 µM.

Q: And the TGI [33]?
A: The TGI was 7.38 µM.

Q: What about the TGI [34] of the same compound?
A: Its TGI is 3.12 µM.

Q: And the TGI [35]?
A: Its TGI is 3.42 µM.

Q: What about the TGI [36] of the same compound?
A: Its TGI is 24.5 µM.

Q: What about the TGI [37] of the same compound?
A: Its TGI is 3.2 µM.

Q: And the TGI [38]?
A: The TGI was 3.14 µM.

Q: What about the TGI [39] of the same compound?
A: The TGI was 1.84 µM.

Q: What about the TGI [40] of the same compound?
A: Its TGI is 3.06 µM.

Q: And the TGI [41]?
A: Its TGI is 3.33 µM.

Q: What about the TGI [42] of the same compound?
A: Its TGI is 10.6 µM.

Q: And the TGI [43]?
A: The TGI was 6.95 µM.

Q: What about the TGI [44] of the same compound?
A: Its TGI is 4.11 µM.

Q: What about the TGI [45] of the same compound?
A: The TGI was 3.88 µM.

Q: What about the TGI [46] of the same compound?
A: The TGI was 3.79 µM.

Q: And the TGI [47]?
A: The TGI was 6.86 µM.

Q: And the TGI [48]?
A: Its TGI is 3.18 µM.

Q: And the TGI [49]?
A: Its TGI is 8.14 µM.

Q: And the TGI [50]?
A: Its TGI is 3.05 µM.

Q: And the TGI [51]?
A: Its TGI is 1.07 µM.

Q: What about the TGI [52] of the same compound?
A: Its TGI is 3.65 µM.

Q: What about the TGI [53] of the same compound?
A: Its TGI is 4.62 µM.

Q: And the TGI [54]?
A: The TGI was 3.09 µM.

Q: What about the TGI [55] of the same compound?
A: Its TGI is 3.19 µM.

Q: What about the TGI [56] of the same compound?
A: Its TGI is 3.32 µM.

Q: What about the TGI [57] of the same compound?
A: Its TGI is 3.23 µM.

Q: `CCC1CCN=C(NS(=O)(=O)c2cc(C)c(Cl)cc2S)N1` (configuration not stated) was tested. Which TGI [1] did it give?
A: Its TGI is 97.9 µM.

Q: And the TGI [2]?
A: Its TGI is > 100 µM.

Q: What about the TGI [3] of the same compound?
A: The TGI was > 100 µM.

Q: And the TGI [4]?
A: Its TGI is > 100 µM.

Q: What about the TGI [5] of the same compound?
A: Its TGI is 57.2 µM.

Q: What about the TGI [6] of the same compound?
A: The TGI was > 100 µM.

Q: What about the TGI [7] of the same compound?
A: The TGI was 88.1 µM.

Q: What about the TGI [8] of the same compound?
A: The TGI was > 100 µM.

Q: And the TGI [9]?
A: The TGI was > 100 µM.

Q: What about the TGI [10] of the same compound?
A: The TGI was > 100 µM.

Q: What about the TGI [11] of the same compound?
A: The TGI was > 100 µM.

Q: And the TGI [12]?
A: Its TGI is 94.6 µM.

Q: What about the TGI [13] of the same compound?
A: The TGI was > 100 µM.

Q: What about the TGI [14] of the same compound?
A: The TGI was 82.5 µM.

Q: What about the TGI [15] of the same compound?
A: The TGI was > 100 µM.

Q: What about the TGI [16] of the same compound?
A: The TGI was > 100 µM.

Q: And the TGI [17]?
A: Its TGI is 92 µM.

Q: What about the TGI [58] of the same compound?
A: The TGI was 88.9 µM.

Q: What about the TGI [18] of the same compound?
A: Its TGI is > 100 µM.

Q: What about the TGI [19] of the same compound?
A: The TGI was > 100 µM.

Q: And the TGI [21]?
A: The TGI was 53.2 µM.

Q: What about the TGI [22] of the same compound?
A: Its TGI is > 100 µM.

Q: What about the TGI [23] of the same compound?
A: Its TGI is 92.9 µM.

Q: What about the TGI [24] of the same compound?
A: Its TGI is > 100 µM.

Q: What about the TGI [25] of the same compound?
A: Its TGI is > 100 µM.

Q: What about the TGI [26] of the same compound?
A: The TGI was 64.2 µM.

Q: And the TGI [27]?
A: The TGI was > 100 µM.

Q: What about the TGI [28] of the same compound?
A: Its TGI is 71.6 µM.

Q: And the TGI [29]?
A: Its TGI is 73.6 µM.

Q: And the TGI [31]?
A: The TGI was > 100 µM.

Q: What about the TGI [32] of the same compound?
A: The TGI was 76.9 µM.

Q: And the TGI [33]?
A: Its TGI is > 100 µM.

Q: What about the TGI [35] of the same compound?
A: The TGI was > 100 µM.

Q: What about the TGI [36] of the same compound?
A: The TGI was 49.9 µM.

Q: And the TGI [37]?
A: The TGI was 44.6 µM.

Q: What about the TGI [38] of the same compound?
A: Its TGI is > 100 µM.

Q: What about the TGI [39] of the same compound?
A: The TGI was 81.5 µM.

Q: And the TGI [40]?
A: Its TGI is > 100 µM.

Q: And the TGI [41]?
A: Its TGI is > 100 µM.

Q: What about the TGI [43] of the same compound?
A: Its TGI is > 100 µM.

Q: What about the TGI [44] of the same compound?
A: Its TGI is > 100 µM.

Q: And the TGI [45]?
A: The TGI was > 100 µM.

Q: What about the TGI [46] of the same compound?
A: Its TGI is > 100 µM.

Q: What about the TGI [47] of the same compound?
A: Its TGI is > 100 µM.

Q: What about the TGI [48] of the same compound?
A: The TGI was > 100 µM.

Q: And the TGI [49]?
A: Its TGI is > 100 µM.

Q: What about the TGI [50] of the same compound?
A: The TGI was > 100 µM.

Q: What about the TGI [51] of the same compound?
A: The TGI was > 100 µM.

Q: And the TGI [52]?
A: Its TGI is 90.3 µM.

Q: And the TGI [53]?
A: Its TGI is 98.5 µM.

Q: And the TGI [54]?
A: Its TGI is > 100 µM.

Q: What about the TGI [55] of the same compound?
A: Its TGI is 93 µM.

Q: And the TGI [56]?
A: Its TGI is > 100 µM.

Q: What about the TGI [57] of the same compound?
A: Its TGI is 54.3 µM.

Q: What about the TGI [59] of the same compound?
A: The TGI was 82.4 µM.
